Source: patent US5059627A, “Nerve growth factor secretion inducing composition” (Takeda Chemical Industries, Ltd., priority 1989, dated 1991)

Columns and labels:
in vivo = conditions: mouse, po
mice = conditions: po, groups of 10

For `Cc1cc(O)c(C)c(C)c1O` [2,3,5-Trimethyl-1,4-hydroquinone, 2,3,5-trimethyl-1,4-hydroquinone], the LD50 (in vivo) was > 500 mg/kg.

With `COc1c(O)c(C)c(CCCCCCCCCCO)c(O)c1OC` [6-(10-hydroxydecyl)-2,3-dimethoxy-5-methyl-1,4-hydroquinone] the LD50 (in vivo) was > 1000 mg/kg.

With `COC1=C(OC)C(=O)C(C/C=C(\C)CCC=C(C)C)=C(C)C1=O` [Ubiquinone-2, ubiquinone-2] the LD50 (in vivo) was > 500 mg/kg.

With `CC1=CC(=O)c2ccccc2C1=O` [Vitamin K0, vitamin K0] the LD50 (mice) was 500 mg/kg.
